# In paper PMC10924921, “Mi-2β promotes immune evasion in melanoma by activating EZH2 methylation” (Nature Communications, 2024):
# Legend:
# Assay in all cases: biochemical
# Set-up in all cases: KINOMEscan active-site competition binding panel (468 kinase assays), per cent of control at 1000 nM
# Details in all cases: KINOMEscan per cent of control (binding competition); read-out: Percent Control
# [1] = molecular target: T1, TRKC (Homo sapiens, UniProt Q16288)
# T1 construct: gene NTRK3
# From the text: (§1) Figure S7 / Percent Control
# [2] = molecular target: T2, JAK3(JH1domain-catalytic) (Homo sapiens, UniProt P52333)
# T2 construct: JH1domain-catalytic
# From the text: as §1
# [3] = molecular target: T3, PRKR (Homo sapiens, UniProt P19525)
# T3 construct: gene EIF2AK2
# From the text: as §1
# [4] = molecular target: TSSK3 (Homo sapiens, UniProt Q96PN8)
# From the text: as §1
# [5] = molecular target: EPHB2 (Homo sapiens, UniProt P29323)
# From the text: as §1
# [6] = molecular target: NEK10 (Homo sapiens, UniProt Q6ZWH5)
# From the text: as §1
# [7] = molecular target: PRKD1 (Homo sapiens, UniProt Q15139)
# From the text: as §1
# [8] = molecular target: WEE2 (Homo sapiens, UniProt P0C1S8)
# From the text: as §1
# [9] = molecular target: FLT3(D835H) (Homo sapiens, UniProt P36888, D835H)
# From the text: as §1
# [10] = molecular target: T4, CDC2L5 (Homo sapiens, UniProt Q14004)
# T4 construct: gene CDK13
# From the text: as §1
# [11] = molecular target: GRK2 (Homo sapiens, UniProt P25098)
# Sequence of GRK2 (P25098 whole entry): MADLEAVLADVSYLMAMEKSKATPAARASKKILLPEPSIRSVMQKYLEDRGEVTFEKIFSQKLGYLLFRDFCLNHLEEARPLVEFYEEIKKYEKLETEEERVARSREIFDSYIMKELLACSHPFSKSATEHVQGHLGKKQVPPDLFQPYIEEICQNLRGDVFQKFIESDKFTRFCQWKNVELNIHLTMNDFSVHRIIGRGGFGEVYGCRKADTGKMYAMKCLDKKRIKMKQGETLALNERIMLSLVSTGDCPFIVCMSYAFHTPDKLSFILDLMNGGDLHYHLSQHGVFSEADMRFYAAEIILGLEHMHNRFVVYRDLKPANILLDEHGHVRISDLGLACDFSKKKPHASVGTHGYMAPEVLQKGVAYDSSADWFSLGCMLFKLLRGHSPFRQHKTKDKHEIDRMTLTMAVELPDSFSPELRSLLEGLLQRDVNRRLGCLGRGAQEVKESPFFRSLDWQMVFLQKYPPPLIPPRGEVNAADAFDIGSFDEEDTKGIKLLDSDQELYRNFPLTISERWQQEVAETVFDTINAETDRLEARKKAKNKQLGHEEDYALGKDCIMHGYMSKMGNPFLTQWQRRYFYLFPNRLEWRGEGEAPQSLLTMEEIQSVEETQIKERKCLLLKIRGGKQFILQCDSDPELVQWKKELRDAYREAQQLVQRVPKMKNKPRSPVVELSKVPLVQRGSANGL
# From the text: as §1
# [12] = molecular target: ULK2 (Homo sapiens, UniProt Q8IYT8)
# Sequence of ULK2 (Q8IYT8 whole entry): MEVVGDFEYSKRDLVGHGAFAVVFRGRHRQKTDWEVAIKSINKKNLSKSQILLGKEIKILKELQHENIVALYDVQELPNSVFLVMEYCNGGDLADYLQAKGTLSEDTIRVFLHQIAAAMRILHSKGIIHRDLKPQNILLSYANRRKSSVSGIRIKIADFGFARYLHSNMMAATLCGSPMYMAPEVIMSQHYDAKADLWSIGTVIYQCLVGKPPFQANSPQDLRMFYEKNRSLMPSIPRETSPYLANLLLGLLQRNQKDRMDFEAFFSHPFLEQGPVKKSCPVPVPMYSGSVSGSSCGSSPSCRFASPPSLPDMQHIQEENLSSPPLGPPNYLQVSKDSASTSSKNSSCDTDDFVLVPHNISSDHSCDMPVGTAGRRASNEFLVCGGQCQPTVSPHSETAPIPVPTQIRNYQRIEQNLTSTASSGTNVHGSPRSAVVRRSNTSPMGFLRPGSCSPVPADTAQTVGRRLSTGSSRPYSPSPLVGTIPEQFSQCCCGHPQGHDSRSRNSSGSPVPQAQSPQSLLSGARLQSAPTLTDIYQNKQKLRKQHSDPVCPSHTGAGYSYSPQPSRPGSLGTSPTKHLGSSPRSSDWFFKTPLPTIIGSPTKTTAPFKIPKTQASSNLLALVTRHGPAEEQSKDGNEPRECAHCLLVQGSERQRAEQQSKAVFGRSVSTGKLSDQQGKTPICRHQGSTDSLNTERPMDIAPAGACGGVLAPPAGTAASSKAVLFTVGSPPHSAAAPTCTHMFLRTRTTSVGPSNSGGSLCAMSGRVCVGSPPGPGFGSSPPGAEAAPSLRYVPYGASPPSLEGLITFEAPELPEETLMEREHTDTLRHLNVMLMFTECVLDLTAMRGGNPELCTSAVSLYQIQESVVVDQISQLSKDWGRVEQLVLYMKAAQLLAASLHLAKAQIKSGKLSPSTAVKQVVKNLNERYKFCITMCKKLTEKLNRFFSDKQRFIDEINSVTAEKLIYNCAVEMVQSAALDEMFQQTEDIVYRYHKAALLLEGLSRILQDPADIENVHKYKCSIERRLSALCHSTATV
# From the text: as §1
# [13] = molecular target: TNNI3K (Homo sapiens, UniProt Q59H18)
# From the text: as §1
# [14] = molecular target: CDKL2 (Homo sapiens, UniProt Q92772)
# From the text: as §1
# [15] = molecular target: HASPIN (Homo sapiens, UniProt Q8TF76)
# From the text: as §1
# [16] = molecular target: T5, YSK4 (Homo sapiens, UniProt Q56UN5)
# T5 construct: gene MAP3K19
# From the text: as §1
# [17] = molecular target: T6, MST1 (Homo sapiens, UniProt Q13043)
# T6 construct: gene STK4
# From the text: as §1
# [18] = molecular target: T7, LKB1 (Homo sapiens, UniProt Q15831)
# T7 construct: gene STK11
# T7 sequence (Q15831 whole entry): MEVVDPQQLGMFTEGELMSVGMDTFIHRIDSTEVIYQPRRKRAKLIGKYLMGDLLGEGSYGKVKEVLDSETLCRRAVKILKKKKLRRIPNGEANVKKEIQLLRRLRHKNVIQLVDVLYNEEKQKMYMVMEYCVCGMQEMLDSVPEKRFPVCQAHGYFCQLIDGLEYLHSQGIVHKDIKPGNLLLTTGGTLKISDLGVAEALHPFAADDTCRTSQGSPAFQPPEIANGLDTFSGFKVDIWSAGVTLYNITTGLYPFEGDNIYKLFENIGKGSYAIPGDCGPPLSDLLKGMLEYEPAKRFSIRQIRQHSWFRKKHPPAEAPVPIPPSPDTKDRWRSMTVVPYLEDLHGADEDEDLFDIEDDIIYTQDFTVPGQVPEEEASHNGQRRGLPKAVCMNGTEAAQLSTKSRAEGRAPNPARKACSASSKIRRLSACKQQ
# From the text: as §1
# [19] = molecular target: CAMK2A (Homo sapiens, UniProt Q9UQM7)
# From the text: as §1
# [20] = molecular target: NEK6 (Homo sapiens, UniProt Q9HC98)
# From the text: as §1
# [21] = molecular target: EPHB1 (Homo sapiens, UniProt P54762)
# Sequence of EPHB1 (P54762 whole entry): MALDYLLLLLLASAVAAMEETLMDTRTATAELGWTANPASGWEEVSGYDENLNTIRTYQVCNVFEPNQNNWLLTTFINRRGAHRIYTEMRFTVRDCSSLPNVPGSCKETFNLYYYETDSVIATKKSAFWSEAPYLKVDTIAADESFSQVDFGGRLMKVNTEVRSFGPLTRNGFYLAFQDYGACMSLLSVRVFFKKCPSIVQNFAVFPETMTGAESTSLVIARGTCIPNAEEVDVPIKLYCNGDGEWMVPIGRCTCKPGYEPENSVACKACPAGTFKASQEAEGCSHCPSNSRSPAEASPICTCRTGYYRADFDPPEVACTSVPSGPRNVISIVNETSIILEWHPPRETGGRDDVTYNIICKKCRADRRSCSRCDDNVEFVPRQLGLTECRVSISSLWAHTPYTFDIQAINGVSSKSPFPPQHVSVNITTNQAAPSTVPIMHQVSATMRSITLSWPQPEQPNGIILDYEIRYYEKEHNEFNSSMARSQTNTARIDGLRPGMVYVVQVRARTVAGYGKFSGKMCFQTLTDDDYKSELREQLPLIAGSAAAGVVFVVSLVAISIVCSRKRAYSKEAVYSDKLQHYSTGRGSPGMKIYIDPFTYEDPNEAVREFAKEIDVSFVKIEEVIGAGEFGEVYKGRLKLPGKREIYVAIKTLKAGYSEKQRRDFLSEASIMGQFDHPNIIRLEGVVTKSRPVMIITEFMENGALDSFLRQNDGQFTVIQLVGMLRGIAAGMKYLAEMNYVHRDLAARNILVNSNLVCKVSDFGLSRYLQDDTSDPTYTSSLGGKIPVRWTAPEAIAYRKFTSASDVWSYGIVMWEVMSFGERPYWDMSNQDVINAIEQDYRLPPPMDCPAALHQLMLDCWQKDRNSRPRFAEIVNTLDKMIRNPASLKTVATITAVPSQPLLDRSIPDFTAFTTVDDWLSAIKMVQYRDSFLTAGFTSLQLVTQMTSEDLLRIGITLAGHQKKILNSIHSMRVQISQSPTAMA
# From the text: as §1
# [22] = molecular target: WNK4 (Homo sapiens, UniProt Q96J92)
# From the text: as §1
# [23] = molecular target: ACVRL1 (Homo sapiens, UniProt P37023)
# Sequence of ACVRL1 (P37023 whole entry): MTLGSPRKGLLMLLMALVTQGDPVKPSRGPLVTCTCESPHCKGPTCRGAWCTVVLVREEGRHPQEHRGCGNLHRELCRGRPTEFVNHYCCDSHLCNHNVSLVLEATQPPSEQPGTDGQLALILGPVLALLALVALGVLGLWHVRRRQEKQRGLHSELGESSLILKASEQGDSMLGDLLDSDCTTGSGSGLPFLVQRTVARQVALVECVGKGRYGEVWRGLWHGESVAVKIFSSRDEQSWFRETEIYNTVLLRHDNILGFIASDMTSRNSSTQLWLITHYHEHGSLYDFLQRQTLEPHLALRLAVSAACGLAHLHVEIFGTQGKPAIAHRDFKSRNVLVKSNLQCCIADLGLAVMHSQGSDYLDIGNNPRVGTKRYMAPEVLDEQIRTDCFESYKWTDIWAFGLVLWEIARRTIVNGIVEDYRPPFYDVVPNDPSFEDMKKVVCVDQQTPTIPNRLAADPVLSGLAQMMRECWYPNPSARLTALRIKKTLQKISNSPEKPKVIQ
# From the text: as §1
# [24] = molecular target: CIT (Homo sapiens, UniProt O14578)
# From the text: as §1
# [25] = molecular target: T8, ADCK4 (Homo sapiens, UniProt Q96D53)
# T8 construct: gene COQ8B
# T8 sequence (Q96D53 whole entry): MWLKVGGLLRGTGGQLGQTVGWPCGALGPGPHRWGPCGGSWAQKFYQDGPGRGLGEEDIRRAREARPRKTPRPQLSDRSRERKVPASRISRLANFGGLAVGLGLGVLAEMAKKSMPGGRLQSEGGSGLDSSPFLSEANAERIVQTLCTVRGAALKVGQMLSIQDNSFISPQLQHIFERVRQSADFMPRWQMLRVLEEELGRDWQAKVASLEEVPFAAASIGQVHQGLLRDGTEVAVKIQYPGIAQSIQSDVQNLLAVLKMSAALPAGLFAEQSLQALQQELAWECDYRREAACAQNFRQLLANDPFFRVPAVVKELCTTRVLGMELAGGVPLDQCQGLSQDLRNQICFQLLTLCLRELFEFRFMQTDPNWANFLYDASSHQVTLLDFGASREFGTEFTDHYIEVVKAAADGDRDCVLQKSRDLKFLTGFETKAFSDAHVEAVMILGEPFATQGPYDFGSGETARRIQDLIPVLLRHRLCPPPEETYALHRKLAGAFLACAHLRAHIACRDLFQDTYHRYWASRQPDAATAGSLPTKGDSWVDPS
# From the text: as §1
# T1 sequence (Q16288 whole entry): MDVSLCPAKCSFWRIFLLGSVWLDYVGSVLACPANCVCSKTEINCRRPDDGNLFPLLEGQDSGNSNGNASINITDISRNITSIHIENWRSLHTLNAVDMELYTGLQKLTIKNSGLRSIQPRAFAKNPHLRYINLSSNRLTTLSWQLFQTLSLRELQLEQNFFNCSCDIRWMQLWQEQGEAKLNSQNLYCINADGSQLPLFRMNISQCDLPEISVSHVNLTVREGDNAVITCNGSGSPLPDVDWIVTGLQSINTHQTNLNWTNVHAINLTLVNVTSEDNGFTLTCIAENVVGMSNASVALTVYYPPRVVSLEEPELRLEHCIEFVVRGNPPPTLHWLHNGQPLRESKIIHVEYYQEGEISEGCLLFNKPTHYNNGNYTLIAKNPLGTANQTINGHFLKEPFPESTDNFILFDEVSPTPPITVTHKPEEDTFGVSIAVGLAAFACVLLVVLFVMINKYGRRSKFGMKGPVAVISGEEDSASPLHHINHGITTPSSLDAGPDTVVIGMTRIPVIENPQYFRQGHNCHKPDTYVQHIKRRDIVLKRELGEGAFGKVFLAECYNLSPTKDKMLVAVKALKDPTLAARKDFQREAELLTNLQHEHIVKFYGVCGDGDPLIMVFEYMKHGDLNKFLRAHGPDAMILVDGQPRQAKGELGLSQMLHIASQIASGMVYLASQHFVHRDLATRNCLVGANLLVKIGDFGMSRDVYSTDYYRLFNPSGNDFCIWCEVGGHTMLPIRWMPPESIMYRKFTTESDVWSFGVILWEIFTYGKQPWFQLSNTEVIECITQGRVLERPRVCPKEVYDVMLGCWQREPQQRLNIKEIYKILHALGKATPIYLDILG
structure (smiles),measurement,setting,value
Cn1c(=O)[nH]c2ccc(-c3cccc(C(=O)NC4CCn5ccnc5C4)c3)cc21 (stereo not shown) [Z36-MP5],remaining binding at 1 µM,[1],53%
same,remaining binding at 1 µM,[2],70%
same,remaining binding at 1 µM,[3],99%
same,remaining binding at 1 µM,[4],42%
same,remaining binding at 1 µM,[5],70%
same,remaining binding at 1 µM,[6],50%
same,remaining binding at 1 µM,[7],100%
same,remaining binding at 1 µM,[8],96%
same,remaining binding at 1 µM,[9],81%
same,remaining binding at 1 µM,[10],55%
same,remaining binding at 1 µM,[11],83%
same,remaining binding at 1 µM,[12],59%
same,remaining binding at 1 µM,[13],96%
same,remaining binding at 1 µM,[14],68%
same,remaining binding at 1 µM,[15],71%
same,remaining binding at 1 µM,[16],85%
same,remaining binding at 1 µM,[17],84%
same,remaining binding at 1 µM,[18],97%
same,remaining binding at 1 µM,[19],87%
same,remaining binding at 1 µM,[20],83%
same,remaining binding at 1 µM,[21],89%
same,remaining binding at 1 µM,[22],81%
same,remaining binding at 1 µM,[23],92%
same,remaining binding at 1 µM,[24],76%
same,remaining binding at 1 µM,[25],64%
